# Patent US9382254B2, “Compounds and pharmaceutical compositions thereof for the treatment of cystic fibrosis” (Galapagos NV, priority 2013, dated 2016)
# Several values for one entry are separate records, joined by “and”; a condition that tells them apart may be missing. Identical values can stand only once.
# How the values were obtained:
# Format in all cases: cell-based
# CFTR ΔF508 mutant [1] = target: T1, CFTR ΔF508 mutant (Homo sapiens, UniProt P13569, DEL508-508); test: YFP-halide influx assay for the CFTR-ΔF508 mutation, gluconate buffer; conditions: CFBE41o- cells, forskolin 10.67 μM
# T1 construct: expressed in transfected cells; host or cells: CFBE41o- (adenoviral transduction)
# T1 sequence (P13569 with tags, fused parts or gaps DEL508-508): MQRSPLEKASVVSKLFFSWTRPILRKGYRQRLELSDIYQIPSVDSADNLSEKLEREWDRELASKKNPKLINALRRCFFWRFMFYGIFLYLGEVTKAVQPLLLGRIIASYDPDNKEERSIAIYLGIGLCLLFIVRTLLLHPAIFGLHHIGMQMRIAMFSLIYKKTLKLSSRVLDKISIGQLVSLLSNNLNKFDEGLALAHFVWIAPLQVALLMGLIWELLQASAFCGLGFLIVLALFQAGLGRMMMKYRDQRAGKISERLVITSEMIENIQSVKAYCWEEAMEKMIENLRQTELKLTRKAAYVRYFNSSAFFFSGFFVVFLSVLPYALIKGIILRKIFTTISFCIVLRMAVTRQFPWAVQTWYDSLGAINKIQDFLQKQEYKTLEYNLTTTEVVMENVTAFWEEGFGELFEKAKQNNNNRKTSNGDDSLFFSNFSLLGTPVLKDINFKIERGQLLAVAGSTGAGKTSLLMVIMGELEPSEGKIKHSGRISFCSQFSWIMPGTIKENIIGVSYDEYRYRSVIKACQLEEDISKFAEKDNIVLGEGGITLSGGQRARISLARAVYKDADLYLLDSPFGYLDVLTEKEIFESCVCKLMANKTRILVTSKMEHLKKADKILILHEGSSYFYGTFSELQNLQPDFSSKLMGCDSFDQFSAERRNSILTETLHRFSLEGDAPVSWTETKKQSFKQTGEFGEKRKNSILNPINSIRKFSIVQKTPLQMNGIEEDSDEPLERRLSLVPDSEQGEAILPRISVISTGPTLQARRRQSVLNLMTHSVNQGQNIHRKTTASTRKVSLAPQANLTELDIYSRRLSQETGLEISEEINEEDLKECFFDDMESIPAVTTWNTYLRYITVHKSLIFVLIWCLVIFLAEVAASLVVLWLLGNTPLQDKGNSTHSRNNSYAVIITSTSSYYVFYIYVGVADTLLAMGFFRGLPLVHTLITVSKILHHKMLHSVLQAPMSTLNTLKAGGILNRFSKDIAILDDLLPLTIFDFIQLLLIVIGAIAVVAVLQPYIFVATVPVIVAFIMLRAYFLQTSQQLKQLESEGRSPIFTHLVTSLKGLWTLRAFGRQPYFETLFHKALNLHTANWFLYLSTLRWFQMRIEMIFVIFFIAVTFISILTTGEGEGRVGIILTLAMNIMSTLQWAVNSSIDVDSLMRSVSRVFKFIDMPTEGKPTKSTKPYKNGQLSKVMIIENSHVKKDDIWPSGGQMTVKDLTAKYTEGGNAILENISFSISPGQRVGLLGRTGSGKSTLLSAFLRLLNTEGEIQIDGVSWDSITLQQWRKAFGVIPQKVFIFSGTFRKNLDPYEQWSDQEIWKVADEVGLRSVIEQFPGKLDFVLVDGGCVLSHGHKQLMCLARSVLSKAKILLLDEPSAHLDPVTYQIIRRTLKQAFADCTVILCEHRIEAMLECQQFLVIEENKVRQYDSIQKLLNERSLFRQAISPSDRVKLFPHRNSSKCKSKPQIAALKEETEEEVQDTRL
# Method in brief: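 Channel opening is read as the fall in YFP fluorescence over 7 s following iodide injection, expressed as 1-F/F0 and plotted versus compound concentration to derive EC50. Cells used were CFBE41o- expressing adenoviral ΔF508 CFTR and halide-sensitive YFP, rescued by 24 h at 27 °C or 24 h modulator treatment at 37 °C.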
# CFTR ΔF508 mutant [2] = target: T1, CFTR ΔF508 mutant; test: YFP-halide influx assay for the CFTR-ΔF508 mutation, PBS buffer (96 well); conditions: CFBE41o- cells, forskolin 10.67 μM
# Method in brief: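 CFBE41o- cells were adenovirally transduced with CFTR ΔF508 and YFP H148Q/I152L, then incubated 24 h at 27 °C or with a CFTR modulator at 37 °C. I⁻-induced fluorescence quenching was recorded over 7 s after injection; response expressed as 1−F/F0, with EC50 from concentration plots.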
# CFTR ΔF508 mutant [3] = target: T1, CFTR ΔF508 mutant; test: YFP-halide influx assay for the CFTR-ΔF508 mutation (384 well, FDSS/μCell); conditions: CFBE41o- cells, CFTR-ΔF508, 1×D-PBS, fluorescence after 36 seconds
# Method in brief: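 Potentiator read-out as 1−F/F0, F taken 36 s after iodide addition, EC50 fitted against compound concentration. Cells: CFBE41o- expressing ΔF508 CFTR plus halide-sensitive YFP via adenovirus, rescued by 27 °C for 24 h or 24 h modulator at 37 °C.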
# CFTR G551D mutant = target: T2, CFTR G551D mutant (Homo sapiens, UniProt P13569, G551D); test: YFP-halide influx assay for the CFTR-G551D mutation; conditions: HEK293 cells, forskolin 10.67 μM
# T2 construct: expressed in transfected cells; host or cells: HEK293 (reverse transfection with plasmid)
# T2 sequence (P13569 whole entry G551D): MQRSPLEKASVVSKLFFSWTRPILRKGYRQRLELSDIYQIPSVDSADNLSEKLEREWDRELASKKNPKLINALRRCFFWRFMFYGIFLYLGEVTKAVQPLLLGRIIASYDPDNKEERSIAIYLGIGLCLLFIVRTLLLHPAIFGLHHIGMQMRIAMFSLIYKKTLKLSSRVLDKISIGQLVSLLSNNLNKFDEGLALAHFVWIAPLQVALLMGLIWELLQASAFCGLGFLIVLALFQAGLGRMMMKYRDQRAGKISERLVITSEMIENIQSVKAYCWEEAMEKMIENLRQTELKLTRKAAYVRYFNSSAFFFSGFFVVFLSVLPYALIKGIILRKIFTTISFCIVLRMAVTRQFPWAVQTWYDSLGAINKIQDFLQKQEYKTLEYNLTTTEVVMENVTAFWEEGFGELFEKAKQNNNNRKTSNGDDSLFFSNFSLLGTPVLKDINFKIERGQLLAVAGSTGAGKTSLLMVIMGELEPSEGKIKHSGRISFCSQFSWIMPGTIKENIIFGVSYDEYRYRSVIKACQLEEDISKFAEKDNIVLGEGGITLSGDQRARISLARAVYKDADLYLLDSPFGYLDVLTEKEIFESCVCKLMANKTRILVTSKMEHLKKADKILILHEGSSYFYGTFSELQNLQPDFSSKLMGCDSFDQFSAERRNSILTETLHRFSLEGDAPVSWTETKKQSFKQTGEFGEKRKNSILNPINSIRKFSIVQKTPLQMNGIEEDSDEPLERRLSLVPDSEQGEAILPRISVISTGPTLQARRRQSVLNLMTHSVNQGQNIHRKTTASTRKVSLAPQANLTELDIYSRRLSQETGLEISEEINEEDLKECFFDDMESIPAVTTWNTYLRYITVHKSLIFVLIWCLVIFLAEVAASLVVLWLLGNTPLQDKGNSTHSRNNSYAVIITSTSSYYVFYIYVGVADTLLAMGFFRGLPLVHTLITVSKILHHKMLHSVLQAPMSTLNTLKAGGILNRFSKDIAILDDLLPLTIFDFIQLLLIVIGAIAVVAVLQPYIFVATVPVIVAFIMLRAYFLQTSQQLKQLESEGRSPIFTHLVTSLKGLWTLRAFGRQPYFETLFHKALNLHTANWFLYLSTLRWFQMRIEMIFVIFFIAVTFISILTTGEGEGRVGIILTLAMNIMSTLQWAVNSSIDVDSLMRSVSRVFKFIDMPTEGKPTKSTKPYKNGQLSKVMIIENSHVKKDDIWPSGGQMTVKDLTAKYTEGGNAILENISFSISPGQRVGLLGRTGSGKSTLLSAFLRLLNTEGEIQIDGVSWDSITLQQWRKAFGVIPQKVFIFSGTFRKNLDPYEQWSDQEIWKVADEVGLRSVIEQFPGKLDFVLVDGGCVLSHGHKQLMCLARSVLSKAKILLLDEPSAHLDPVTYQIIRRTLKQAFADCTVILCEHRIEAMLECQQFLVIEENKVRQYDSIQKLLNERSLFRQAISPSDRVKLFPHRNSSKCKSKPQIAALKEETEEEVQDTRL
# Method in brief: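 Channel opening potentiation measured as 1−F/F0, where F is YFP fluorescence 7 s after iodide injection and F0 before; EC50 taken from concentration plot. Cells: HEK293 transiently expressing CFTR G551D plus halide-sensitive YFP (H148Q, I152L, F47L), 24 h at 37 °C, 5% CO2.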
# CFTR-G178R = target: T3, CFTR-G178R (Homo sapiens, UniProt P13569, G178R); test: YFP-halide influx assay for the CFTR-G178R
# T3 construct: expressed in transfected cells
# T3 sequence (P13569 whole entry G178R): as the sequence (P13569 whole entry G551D) above, with G178R, D551G counted along it
# Method in brief: (§1)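 HEK293 cells reverse-transfected with the CFTR mutant plus halide-sensitive YFP (H148Q/I152L/F47L), expressed 24 h at 37 °C. Channel activity measured as I⁻-induced fluorescence quenching over 7 s after injection, expressed as 1-F/F0; EC50 from 1-F/F0 versus compound concentration.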
# CFTR-G1349D = target: T4, CFTR-G1349D (Homo sapiens, UniProt P13569, G1349D); test: YFP-halide influx assay for the CFTR-G1349D
# T4 construct: expressed in transfected cells
# T4 sequence (P13569 whole entry G1349D): as the sequence (P13569 whole entry G551D) above, with D551G, G1349D counted along it
# Method in brief: as §1
# CFTR-S549N = target: T5, CFTR-S549N (Homo sapiens, UniProt P13569, S549N); test: YFP-halide influx assay for the CFTR-S549N
# T5 construct: expressed in transfected cells
# T5 sequence (P13569 whole entry S549N): as the sequence (P13569 whole entry G551D) above, with S549N, D551G counted along it
# Method in brief: as §1
# CFTR-R117H = target: T6, CFTR-R117H (Homo sapiens, UniProt P13569, R117H); test: YFP-halide influx assay for the CFTR-R117H
# T6 construct: expressed in transfected cells
# T6 sequence (P13569 whole entry R117H): as the sequence (P13569 whole entry G551D) above, with R117H, D551G counted along it
# Method in brief: as §1
EC50 (CFTR ΔF508 mutant [1]),EC50 (CFTR ΔF508 mutant [2]),EC50 (CFTR ΔF508 mutant [3]),EC50 (CFTR G551D mutant),EC50 (CFTR-G178R),EC50 (CFTR-G1349D),EC50 (CFTR-S549N),EC50 (CFTR-R117H),Structure (SMILES)
25.1 nM,16.5 nM,15.7 nM,232 nM,44.7 nM,41.6 nM,162 nM,168 nM,"CN(Cc1ccccc1)S(=O)(=O)c1cc(C(N)=O)c(NC(=O)c2ccn[nH]2)s1 [Compound 73, N-(5-(N-benzyl-N-methylsulfamoyl)-3-carbamoylthiophen-2-yl)-1H-pyrazole-3-carboxamide]"
42.8 nM,30.8 nM,12.1 nM,339 nM,71.3 nM,152 nM,353 nM,222 nM,"NC(=O)c1cc(S(=O)(=O)c2ccccc2)sc1NC(=O)c1cc[nH]n1 [Compound 83, N-(3-carbamoyl-5-(phenylsulfonyl)thiophen-2-yl)-1H-pyrazole-3-carboxamide]"
–,30.3 nM and 137 nM,27.8 nM,878 nM and 1410 nM,58 nM,141 nM,243 nM,127 nM,"NC(=O)c1cc(S(=O)(=O)c2ccc(F)cc2)sc1NC(=O)C1(CO)CC1 [Compound 254, 5-(4-fluorophenylsulfonyl)-2-(1-(hydroxymethyl)cyclopropanecarboxamido) thiophene-3-carboxamide]"
–,19.7 nM,18.3 nM,478 nM,291 nM,211 nM,415 nM,181 nM,"CC(C)(O)C(=O)Nc1sc(S(=O)(=O)c2ccc(OC(F)(F)F)cc2)cc1C(N)=O [Compound 270, 2-(2-hydroxy-2-methylpropanamido)-5-(4-(trifluoromethoxy)phenylsulfonyl) thiophene-3-carboxamide]"
–,8.1 nM,7.5 nM,178 nM,23.9 nM,37.5 nM,60.9 nM,40 nM,"CC(C)(O)C(=O)Nc1sc(S(=O)(=O)c2ccccc2OC(F)(F)F)cc1C(N)=O [Compound 271, 2-(2-hydroxy-2-methylpropanamido)-5-(2-(trifluoromethoxy)phenylsulfonyl) thiophene-3-carboxamide]"
–,46.2 nM,26.5 nM,857 nM,165 nM,304 nM,1150 nM,160 nM,"CC(C)(O)C(=O)Nc1sc(S(=O)(=O)c2ccc(F)cc2Cl)cc1C(N)=O [Compound 286, 5-(2-chloro-4-fluorophenylsulfonyl)-2-(2-hydroxy-2-methylpropanamido) thiophene-3-carboxamide]"
–,34.3 nM,27.6 nM,880 nM,207 nM,258 nM,871 nM,166 nM,"CC(C)(O)C(=O)Nc1sc(S(=O)(=O)c2ccccc2Cl)cc1C(N)=O [Compound 290, 5-(2-chlorophenylsulfonyl)-2-(2-hydroxy-2-methylpropanamido) thiophene-3-carboxamide]"
–,6.2 nM,5.5 nM,207 nM,104 nM,69.5 nM,164 nM,97.2 nM,"CC(C)(O)C(=O)Nc1sc(S(=O)(=O)c2c(Cl)cccc2Cl)cc1C(N)=O [Compound 298, 5-(2,6-Dichloro-benzenesulfonyl)-2-(2-hydroxy-2-methyl-propionylamino)-thiophene-3-carboxylic acid amide]"
–,–,2.58 nM,61.3 nM,9.85 nM,6.06 nM,26.2 nM,83.1 nM,"CC(C)(O)C(=O)Nc1sc(S(=O)(=O)c2nc(C(C)(C)C)ccc2C(F)(F)F)cc1C(N)=O [Compound 426, 5-[[6-tert-butyl-3-(trifluoromethyl)-2-pyridyl]sulfonyl]-2-[(2-hydroxy-2-methyl-propanoyl)amino] thiophene-3-carboxamide]"
–,–,42 nM,2230 nM,670 nM,438 nM,1020 nM,1350 nM,"CC(C)(O)C(=O)Nc1sc(S(=O)(=O)c2cccc(C(F)(F)F)n2)cc1C(N)=O [Compound 427, 2-[(2-hydroxy-2-methyl-propanoyl)amino]-5-[[6-(trifluoromethyl)-2-pyridyl]sulfonyl] thiophene-3-carboxamide]"
–,–,17.5 nM,936 nM,142 nM,229 nM,507 nM,208 nM,"CC(C)(O)C(=O)Nc1sc(S(=O)(=O)c2cc(Cl)cc(C(F)(F)F)c2)cc1C(N)=O [Compound 429, 5-[3-chloro-5-(trifluoromethyl)phenyl]sulfonyl-2-[(2-hydroxy-2-methyl-propanoyl)amino] thiophene-3-carboxamide]"
–,–,10.7 nM,1500 nM,283 nM,3330 nM,702 nM,321 nM,"Cc1cc(C(F)(F)F)cc(S(=O)(=O)c2cc(C(N)=O)c(NC(=O)C(C)(C)O)s2)c1 [Compound 430, 2-[(2-hydroxy-2-methyl-propanoyl)amino]-5-[3-methyl-5-(trifluoromethyl)phenyl] sulfonyl-thiophene-3-carboxamide]"
–,–,47.9 nM,5550 nM,1110 nM,3330 nM,1480 nM,359 nM,"CC(C)(O)C(=O)Nc1sc(S(=O)(=O)c2cc(Cl)ncc2C#N)cc1C(N)=O [Compound 432, 5-[(2-chloro-5-cyano-4-pyridyl)sulfonyl]-2-[(2-hydroxy-2-methyl-propanoyl)amino] thiophene-3-carboxamide]"
–,–,48.8 nM,1300 nM,217 nM,3330 nM,405 nM,676 nM,"CC(C)(O)C(=O)Nc1sc(S(=O)(=O)c2ccc(C(C)(C)C)cn2)cc1C(N)=O [Compound 433, 5-[(5-tert-butyl-2-pyridyl)sulfonyl]-2-[(2-hdyroxy-2-methyl-propanoyl)amino] thiophene-3-carboxamide]"
–,–,16.5 nM,1920 nM,33.8 nM,117 nM,242 nM,173 nM,"NC(=O)c1cc(S(=O)(=O)c2ccc(OC(F)(F)F)cc2F)sc1NC(=O)C1(CO)CC1 [Compound 435, 5-[2-fluoro-4-(trifluoromethoxy)phenyl] sulfonyl-2-[[1-(hydroxymethyl)cyclopropanecarbonyl]amino] thiophene-3-carboxamide]"
